Test [1] has as its target caspase-like site of 26S proteasomes (Oryctolagus cuniculus, UniProt A0A5F9DQW2). The experiment in a line: Inhibition of purified 26S proteasomes, substrate Ac-nLPnLD-amc. The format is biochemical, rabbit. Particulars: >>30 no inhibition at 30 μM, >30 inhibition between 10 and 50% at 30 μM, read-out: IC50 for sites in 26S proteasomes: Casp-L. The method, then:
(§1) 26S proteasomes were purified from rabbit muscle using known methods (Screen, et al. (2010) supra). […] NOVEX Bis-Tris gels (12%, Invitrogen) with MOPS running buffer were used for electrophoretic separation of catalytic subunits modified by active-site probes. Inhibition of active sites inside cells was assayed using luminescent PROTEASOMEGLO assay (Promega; Moravec, et al. (2009) Anal. Biochem. 387:294-302) according to known methods (Britton, et al. (2009) supra).

The target in test [2] is T1, β5 proteasome subunit (Homo sapiens, UniProt P20618+P28074).
T1 construct: Whole cell lysates of HEK-293T or EL-4 cells were made by sonication; endogenous in cells; host or cells: HEK-293T
The experiment in a line: Competition assay in HEK-293T cell lysate with MV151. Type of test: biochemical. The settings on record: HEK293 extracts. On the procedure: Whole cell lysates of HEK-293T or EL-4 cells were made by sonication in 3 volumes of lysis buffer containing 50 mM Tris pH 7.5, 1 mM DTT, 5 mM MgCl2, 250 mM sucrose, 2 mM ATP, 0.025% digitonin. Protein concentration was determined by the Bradford assay. Cell lysates (13.5 μg total protein for HEK lysates and 9 μg total protein for EL-4 lysates) were exposed to the inhibitors for 1 hour at 37° C. prior to incubation with MV151 (0.5 μM) or BODIPY-TMR-epoxomicin (0.5 μM) for an additional 1 hour at 37° C. Reaction mixtures were boiled with Laemmli's buffer containing (3-mercaptoethanol for 5 minutes before being resolved by 12.5% SDS-PAGE. In-gel detection of residual proteasome activity was performed in the wet gel slabs directly on the TYPHOON Variable Mode Imager (Amersham Biosciences) using the Cy3/Tamra settings (λex 532 nm, λem 560 nm) to detect MV151, BODIPY-TMR-epoxomicin and Cy2/Fam settings (λex 488 nm, λem 520 nm) to detect compounds 39 and 59.
The inhibition potential of the inhibitors for each of the catalytically active subunits was assessed in competition assays employing extracts of human embryonic kidney cells (HEK-293T) and mouse lymphoma cells (EL-4) in combination with the fluorescent broad spectrum proteasome probe MV151 (Verdoes, et al. (2006) Chem. Biol. 13:1217-1226). Competitive inhibition of a proteasome active site is reflected by the disappearance of the corresponding band on a gel.

The target in test [3] is T2, chymotrypsin-like site of 26S proteasomes (Oryctolagus cuniculus, UniProt G1T4Q9).
T2 sequence (G1T4Q9 1-263): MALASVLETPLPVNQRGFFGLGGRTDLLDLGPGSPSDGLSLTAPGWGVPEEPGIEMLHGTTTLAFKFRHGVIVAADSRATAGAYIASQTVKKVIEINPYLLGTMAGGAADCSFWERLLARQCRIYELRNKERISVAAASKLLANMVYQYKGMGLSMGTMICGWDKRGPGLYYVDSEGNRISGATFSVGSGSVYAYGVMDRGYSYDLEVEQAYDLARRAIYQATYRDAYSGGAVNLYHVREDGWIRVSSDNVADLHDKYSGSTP
Description: Inhibition of purified 26S proteasomes, substrate Suc-LLVY-amc. Type of test: biochemical, rabbit. Particulars: >>30 no inhibition at 30 μM, >30 inhibition between 10 and 50% at 30 μM, read-out: IC50 for sites in 26S proteasomes: Chym-L. The method, then:
as §1

Test [4] concerns trypsin-like site of 26S proteasomes. Description: Inhibition of purified 26S proteasomes, substrate Ac-RLR-amc. The format is biochemical, rabbit. The settings on record: rabbit 26S proteasomes.
Test [5] has as its target T3, trypsin-like site of 26S proteasomes (Oryctolagus cuniculus, UniProt G1SWK8).
T3 construct: IC50 for sites in 26S proteasomes: Tr-L; other: purified 26S proteasomes; other: 26S proteasomes from rabbit muscles
T3 sequence (G1SWK8 1-271): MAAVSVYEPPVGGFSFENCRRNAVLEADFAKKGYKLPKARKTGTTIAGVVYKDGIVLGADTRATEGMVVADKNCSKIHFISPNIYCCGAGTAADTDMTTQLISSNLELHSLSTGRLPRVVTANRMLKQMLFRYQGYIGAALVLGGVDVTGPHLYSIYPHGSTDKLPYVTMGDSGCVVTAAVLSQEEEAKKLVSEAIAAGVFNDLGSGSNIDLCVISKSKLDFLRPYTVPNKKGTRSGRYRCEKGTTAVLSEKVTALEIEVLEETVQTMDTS
Described as above. The format is biochemical, rabbit.

For test [6], the target named is T4, trypsin-like sites (β2) of proteasome in MM cells (Homo sapiens, UniProt Q99436).
T4 construct: endogenous in cells; host or cells: NCI-H929, RPMI-8226 and other MM cell lines
T4 sequence (Q99436 44-277): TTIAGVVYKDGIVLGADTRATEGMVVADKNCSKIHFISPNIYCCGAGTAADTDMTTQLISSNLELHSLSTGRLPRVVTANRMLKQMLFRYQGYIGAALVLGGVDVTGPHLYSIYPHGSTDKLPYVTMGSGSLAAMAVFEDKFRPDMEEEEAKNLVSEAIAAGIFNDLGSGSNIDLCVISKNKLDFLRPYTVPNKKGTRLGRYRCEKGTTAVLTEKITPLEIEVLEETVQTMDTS
Description: PROTEASOMEGLO assay of proteasome inhibition in MM cells. Particulars: NCI-H929 cells treated overnight. Type of test: cell-based. On the procedure: Proteasome inhibition in MM cells was measured with luminogenic substrates using PROTEASOMEGLO assay (Promega). […] An aliquot of culture was pelleted and medium was removed and replaced with PBS. The resulting cell suspension was mixed with luminogenic substrates in the manufacturer-provided lysis/assay buffer. After 3 minutes mixing on an orbital shaker, the plate was incubated in the dark for additional 17 minutes, followed by the measurements of the luminescence, performed in triplicate for each substrate/data point. Data were analyzed as for purified proteasomes. […] Cells (1×10^6 per well of a 6-well plate) were incubated with the inhibitors for 4 hours at 37° C. and this was followed by a 2 hour incubation with 5 μM BODIPY-TMR-epoxomicin. Subsequently, the medium was removed and the cells were washed with PBS and harvested. […] The supernatant was collected and the protein concentration was determined by the Bradford assay, and used to normalize gel loading. The samples were analysed by SDS-PAGE and fluorescent densitometry as described for competition experiment in cell lysates. IC50 values were calculated from three independent experiments using […] PRISM software.

For test [7], the system named is β2 and β2i sites. Description: MV-151 label-competition in extracts of RPMI-8226 MM cells. The format is biochemical. Particulars: extracts of RPMI-8226 cells, MV-151 probe. The text has this:
Multiple myeloma cells express constitutive proteasomes and immunoproteasomes, and substrates used for the measurement of activity were cleaved by both. To determine whether there were any differences in inhibition of constitutive proteasomes or immunoproteasomes by NC-002, NC-012, and NC-022, the fluorescent activity-based probe MV-151 (Verdoes, et al. (2006) Chem. Biol. 13:1217-1226) was used in a label-competition experiment. Extracts of RPMI-8226 MM cells (which express more immunoproteasomes than NCI-H929 cells) were treated first with the NC inhibitors and then with the MV-151 probe. This was followed by fractionation on SDS-PAGE to separate proteasome subunits and imaging to reveal those subunits labeled by the probe (i.e., unmodified by the inhibitors).

“Also recorded” adds a separate entry of the source. Where a name gives a salt, the structure may show the parent alone.

Chain of caspase-like site of 26S proteasomes (A0A5F9DQW2 1-212): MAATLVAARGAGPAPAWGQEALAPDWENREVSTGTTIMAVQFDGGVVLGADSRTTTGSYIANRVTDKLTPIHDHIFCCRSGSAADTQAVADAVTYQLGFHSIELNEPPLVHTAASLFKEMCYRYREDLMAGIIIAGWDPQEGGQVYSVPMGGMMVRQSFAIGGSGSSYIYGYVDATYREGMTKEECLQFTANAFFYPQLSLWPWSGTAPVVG

A word on the IC50: it is the midpoint of a concentration-inhibition curve. `CC(C)C[C@@H](/C=C/S(C)(=O)=O)NC(=O)[C@H](CC(C)C)NC(=O)[C@H](Cc1ccc(N)cc1)NC(=O)[C@H](Cc1ccccc1)N=[N+]=[N-]` [Compound 56, N3-Phe-Phe(4-NH2-TFA)-Leu-Leu-VS]: the IC50 is over 30 µM in test [1]; under 0.004 µM in test [3]; 24 µM in test [5] (purified 26S proteasomes, >>30 no inhibition at 30 μM, >30 inhibition between 10 and 50% at 30 μM, read-out: IC50 for sites in 26S proteasomes: Tr-L). Also, the “inhibition of chymotrypsin-like sites in extracts versus purified proteasomes” value in test [2] is “less potently and selectively in extracts than in purified proteasomes”. In test [4], the “IC50 (Chym-L)/IC50 (Tr-L)” value was under 0.00017.
For `CC(=O)N[C@@H](CCCNC(=N)N)C(=O)N[C@@H](CC(C)C)C(=O)N[C@@H](CCCNC(=N)N)C(=O)[C@@]1(C)CO1` [NC-012, Ac-Arg-Leu-Arg-ek], the “inhibition of trypsin-like activity in live cells” value in test [6] was “much higher concentrations”. For the same compound, the “inhibition of constitutive (β2) versus immunoproteasome (β2i) trypsin-like sites” value in test [7] is “equipotent inhibitors of the trypsin-like sites of constitutive and immunoproteasomes”. Also, the “proteasome inhibitory potential on purified 26S proteasomes” value in test [5] (26S proteasomes from rabbit muscles) was “potent and specific inhibitors of the trypsin-like sites; also recorded: most potent and specific in the series”.

Source of the values: patent publication US8609610B2, “Inhibitors of the trypsin-like site of the proteasome and methods of use thereof” (Trustees of Dartmouth College, priority 2011, dated 2013).
